Laboratory results reported in publication PMC3124785 (ACS chemical neuroscience, 2011).
Entries after “also recorded” stand apart in the source; their conditions may differ. Where two headings read alike, the source gives them in different places.

Columns and labels:
primary cortical neurons = details: for effect of GPR30 antagonist G15 on neuroprotection: G15 100 nM pre-treatment, test compounds 100 nM; for neuroprotection against OGD by BT-SERM analogs and derivatives: all 100 nM, MTT assay; for neuroprotection against OGD at lower concentrations: 1 μM or below; for effect of G15 on neuroprotection by antioxidants / sulforaphane: G15 pre-treatment (-45 min); for neuroprotection against OGD by antioxidants / sulforaphane: concentration series; for neuroprotection against OGD, initial screen of BT-SERMs: BT-SERMs 100 nM; for concentration giving equivalence to E2 (10 nM) in neuroprotection: MTT cell viability assay, 2 h OGD, 24 h reperfusion
ER = biological target: T1, ER (Homo sapiens, UniProt P03372); details: Fig. 1; cited from earlier work
T1 sequence (P03372 1-595): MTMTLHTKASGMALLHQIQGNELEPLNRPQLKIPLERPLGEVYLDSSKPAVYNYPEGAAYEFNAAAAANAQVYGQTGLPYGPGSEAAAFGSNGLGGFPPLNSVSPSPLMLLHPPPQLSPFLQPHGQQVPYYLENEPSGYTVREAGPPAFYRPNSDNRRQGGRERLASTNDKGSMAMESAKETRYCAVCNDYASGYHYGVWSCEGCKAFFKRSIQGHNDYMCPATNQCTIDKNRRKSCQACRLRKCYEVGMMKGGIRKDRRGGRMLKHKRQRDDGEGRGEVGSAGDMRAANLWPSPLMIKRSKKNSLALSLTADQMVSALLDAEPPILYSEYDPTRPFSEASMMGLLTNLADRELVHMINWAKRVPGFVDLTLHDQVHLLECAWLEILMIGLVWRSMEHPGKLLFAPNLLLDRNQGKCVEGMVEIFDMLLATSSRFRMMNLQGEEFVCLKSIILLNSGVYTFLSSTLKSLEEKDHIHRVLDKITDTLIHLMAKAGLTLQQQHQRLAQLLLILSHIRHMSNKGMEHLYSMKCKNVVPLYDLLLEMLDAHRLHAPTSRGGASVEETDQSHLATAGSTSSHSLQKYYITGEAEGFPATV

ERβ = details: cited from earlier work
ERα = details: cited from earlier work
iNOS = details: read-out: Ki iNOS; cited from earlier work

## Oc1cccc(-c2cn(-c3cccc(O)c3)nn2)c1 [3,3-TDP]
Primary cortical neurons; E2 10 nM
  effect of GPR30 antagonist G15 on neuroprotection: GPR30-dependent
Primary cortical neurons
  neuroprotection against OGD by BT-SERM analogs and derivatives: neuroprotective

## Oc1ccc(-c2cn(-c3ccc(O)cc3)nn2)cc1 [4,4-TDP]
Primary cortical neurons
  neuroprotection against OGD by BT-SERM analogs and derivatives: no neuroprotective activity

## Cc1cc(C(C)(C)C)c(O)c(C(C)(C)C)c1 [BHT, butylated hydroxtoluene]
Primary cortical neurons; MTT and LDH
  neuroprotection against OGD at lower concentrations: neuroprotective
  neuroprotection against OGD by antioxidants / sulforaphane: neuroprotective
Primary cortical neurons
  effect of G15 on neuroprotection by antioxidants / sulforaphane: insensitive to antagonism by G15
Primary cortical neurons; higher concentration (10 μM), MTT and LDH
  effect in OGD neurons at higher concentration: neurotoxicity; also recorded: neurotoxic

## Oc1ccc(-c2cc3ccc(O)cc3s2)cc1 [BTC, 2-(4-hydroxyphenyl)-benzo[b]thiophen-6-ol]
Primary cortical neurons; MTT and LDH
  neuroprotection against OGD, initial screen of BT-SERMs: active
Primary cortical neurons
  effect of G15 on neuroprotection by antioxidants / sulforaphane: did not inhibit neuroprotection
ER
  ER activity in cell culture: ER agonist activity
ERβ; ERβ versus ERα, Fig. 1
  ER subtype selectivity: selectivity for ERβ

## Oc1ccc(-c2sc3cc(O)ccc3c2Oc2ccc(OCCN3CCCCC3)cc2)cc1 [DMA, [6-hydroxy-3-[4-[2-(1-piperidinyl)-ethoxy]phenoxy]-2-(4-hydroxyphenyl)]benzo[b]thiophene]
Primary cortical neurons; MTT and LDH
  neuroprotection against OGD, initial screen of BT-SERMs: neuroprotective
Primary cortical neurons
  concentration giving equivalence to E2 (10 nM) in neuroprotection: 28 nM
ERα
  binding to ERα: high affinity
ERβ
  binding to ERβ: high affinity

## C[C@]12CC[C@@H]3c4ccc(O)cc4CC[C@H]3[C@@H]1CC[C@@H]2O [E2, 17β-estradiol]
Primary cortical neurons; E2 10 nM
  effect of GPR30 antagonist G15 on neuroprotection: blocked neuroprotection
Primary cortical neurons; ICI 1 μM 45 min prior to OGD, SERMs 100 nM, E2 10 nM
  effect of ER antagonist ICI 182 780 on neuroprotection: block E2 mediated neuroprotection
Primary cortical neurons; OGD 2 h, recovery 24 h
  greater cell death in the vehicle treated group than the E2 treated group: 30-40%
Primary cortical neurons; estrogens 10 nM, E2-BSA 10 ng/mL, MTT and LDH
  neuroprotection against OGD by estrogens: neuroprotective

## Oc1ccc(Oc2c(-c3ccc(F)cc3)sc3cc(O)ccc23)cc1 [HP-BTF, 2-(4-fluorophenyl)-3-(4-hydroxyphenoxy)benzo[b]thiophen-6-ol]
Primary cortical neurons; E2 10 nM
  effect of GPR30 antagonist G15 on neuroprotection: GPR30-dependent
Primary cortical neurons
  neuroprotection against OGD by BT-SERM analogs and derivatives: neuroprotective

## COC(=O)[C@@H](N)CCCNC(N)=N[N+](=O)[O-] [L-NAME, L-nitro-arginine methyl ester]
Primary cortical neurons; L-NAME 100 μM, alone or in combination with estrogen and SERMs
  effect of L-NAME on neuroprotection: no significant effect

## N=C(NCCC[C@H](N)C(=O)O)N[N+](=O)[O-] [N^G-nitro-L-arginine]
iNOS
  Ki: 4 µM

## O=C(c1ccc(OCCN2CCCCC2)cc1)c1c(-c2ccc(O)cc2)sc2cc(O)ccc12 [Ral, raloxifene]
Primary cortical neurons; MTT and LDH
  neuroprotection against OGD, initial screen of BT-SERMs: neuroprotective
Primary cortical neurons
  concentration giving equivalence to E2 (10 nM) in neuroprotection: 68 nM
Primary cortical neurons; listed as raloxifene
  concentration giving equivalence to E2 (10 nM) in neuroprotection: 62 nM

## Cc1ccc(C(=O)c2c(-c3ccc(O)cc3)sc3cc(O)ccc23)cc1 [Tol-BTC, (6-hydroxy-2-(4-hydroxyphenyl)benzo[b]thiophen-3-yl)(p-tolyl)methanone]
Primary cortical neurons
  neuroprotection against OGD by BT-SERM analogs and derivatives: neuroprotective

## Cc1c(C)c2c(c(C)c1O)CCC(C)(C(=O)O)O2 (centres unmarked) [Trolox]
Primary cortical neurons
  effect of G15 on neuroprotection by antioxidants / sulforaphane: did not inhibit neuroprotection; also recorded: insensitive to antagonism by G15
Primary cortical neurons; MTT and LDH
  neuroprotection against OGD by antioxidants / sulforaphane: neuroprotective; also recorded: concentration dependent neuroprotection

## COc1ccc(-c2sc3cc(O)ccc3c2Oc2ccc(OCCN3CCCCC3)cc2)cc1 [arzoxifene]
Primary cortical neurons; MTT and LDH
  neuroprotection against OGD, initial screen of BT-SERMs: inactive

## O=C(CCCCCC(=O)c1c(-c2ccc(O)cc2)sc2cc(O)ccc12)c1c(-c2ccc(O)cc2)sc2cc(O)ccc12 [bisBTChd, 1,7-bis(6-hydroxy-2-(4-hydroxyphenyl)benzo[b]thiophen-3-yl)heptane-1,7-dione]
Primary cortical neurons
  neuroprotection against OGD by BT-SERM analogs and derivatives: neuroprotective

## CC(C)c1c(-c2ccc(O)cc2)sc2cc(O)ccc12 [iPr-BTC, 2-(4-hydroxyphenyl)-3-isopropylbenzo[b]thiophen-6-ol]
Primary cortical neurons
  neuroprotection against OGD by BT-SERM analogs and derivatives: neuroprotective

## C[S+]([O-])CCCCN=C=S (centres unmarked) [sulforaphane]
Primary cortical neurons; MTT and LDH
  neuroprotection against OGD at lower concentrations: neuroprotection
Primary cortical neurons; MTT and LDH, listed as Sulforaphane
  neuroprotection against OGD at lower concentrations: neuroprotective
Primary cortical neurons
  effect of G15 on neuroprotection by antioxidants / sulforaphane: did not inhibit neuroprotection; also recorded: insensitive to antagonism by G15
